Where two headings read alike, the source gives them in different places. Marks after values point to notes of the source that are not given here.
Key:
[1] = system: rat skeletal myoblast L6 cells; test: cells; settings: L6, read-out: L6 cells IC50
Description: (§1) Cytotoxicity against mammalian cells was assessed using microtitre plates following a described procedure [58]. Briefly, rat skeletal muscle L6 cells were seeded at 1 × 10^4 mL^−1 in 200 μL of growth medium containing different compound concentrations. The plates were incubated for 6 days at 37 °C and 20 μL resazurin was then added to each well. After a further 8 h incubation, the fluorescence was determined using a Spectramax plate reader.

in vitro [2] = settings: rat
Description: as §1

[3] = biological target: T1, Electrophorus electricus AChE (EeAChE) (Electrophorus electricus, UniProt O42275); set-up: method as in PMID 24389509; settings: same experimental conditions; ref [40]; cited from earlier work
[4] = system: human recombinant AChE (hAChE); set-up: method as in PMID 24389509; settings: ref [40]; cited from earlier work
[5] = system: bloodstream form T. brucei (strain 221); test: Trypanocidal activity against cultured bloodstream form T. brucei (resazurin); settings: for IC50: mean of triplicate ± SEM; for IC90: pH 7.4, read-out: T. brucei IC90
Description: T. brucei in the logarithmic phase of growth were diluted back to 2.5 × 10^4 mL^−1 and aliquoted into 96-well plates. The compounds were then added at a range of concentrations and the plates incubated at 37 °C. Each drug concentration was tested in triplicate. Resazurin was added after 48 h and the plates incubated for a further 16 h and the plates then read in a Spectramax plate reader. Results were analysed using GraphPad Prism.

[6] = system: L. infantum strain MCAN/ES/92/BCN722 promastigote forms; test: Activity against promastigotes of L. infantum (acid phosphatase); format: cell-based, Leishmania infantum; settings: promastigote form, mean ± SD of duplicate experiments performed at least twice
[7] = system: T. cruzi strain MHOM/ES/2203/BCN590 (Tcl) epimastigote forms; test: Activity against epimastigotes of T. cruzi (cell counting); settings: mean ± SD of duplicate experiments performed at least twice
[8] = for Pe: PAMPA-BBB, PBS:EtOH 70:30, mean ± SD of three independent experiments; for Pe (prediction) of BBB permeation: class from PAMPA-BBB Pe
Description: (§2) Thus, the brain passive permeability of the novel compounds was evaluated in vitro through the widely used PAMPA-BBB method [[50]

[9] = biological target: T1, Electrophorus electricus AChE (EeAChE); test: biochemical; format: biochemical; settings: for inhibition at 30 µM: the IC50 could not be determined; for IC50: mean ± SEM
in vitro [10] = settings: pig, PAMPA
Description: as §2

[11] = commercial drugs for PAMPA-BBB validation; ref [2]; cited from earlier work
[12] = system: rat skeletal myoblast L6 cells
Description: as §1

[13] = system: bloodstream form T. brucei (strain 221); settings: read-out: T. brucei IC50; nifurtimox reference value; ref [49]; cited from earlier work
[14] = rat skeletal muscle L6 cells, SITb: selectivity index as the ratio of cytotoxic to anti-T. brucei IC50 values, L6 IC50 / T. brucei IC50
[15] = Trypanosoma brucei, pH 7.4, read-out: T. brucei IC50, bloodstream form, pH 7.4
[16] = rat skeletal muscle L6 cells, SILi: selectivity index as the ratio of cytotoxic to anti-L. infantum IC50 values, L6 IC50 / L. infantum IC50
[17] = rat skeletal muscle L6 cells, SITc: selectivity index as the ratio of cytotoxic to anti-T. cruzi IC50 values, L6 IC50 / T. cruzi IC50
[18] = Trypanosoma cruzi, read-out: T. cruzi IC50, epimastigote form
[19] = read-out: T. brucei IC50, bloodstream form, pH 7.4

T1 sequence (O42275 24-633): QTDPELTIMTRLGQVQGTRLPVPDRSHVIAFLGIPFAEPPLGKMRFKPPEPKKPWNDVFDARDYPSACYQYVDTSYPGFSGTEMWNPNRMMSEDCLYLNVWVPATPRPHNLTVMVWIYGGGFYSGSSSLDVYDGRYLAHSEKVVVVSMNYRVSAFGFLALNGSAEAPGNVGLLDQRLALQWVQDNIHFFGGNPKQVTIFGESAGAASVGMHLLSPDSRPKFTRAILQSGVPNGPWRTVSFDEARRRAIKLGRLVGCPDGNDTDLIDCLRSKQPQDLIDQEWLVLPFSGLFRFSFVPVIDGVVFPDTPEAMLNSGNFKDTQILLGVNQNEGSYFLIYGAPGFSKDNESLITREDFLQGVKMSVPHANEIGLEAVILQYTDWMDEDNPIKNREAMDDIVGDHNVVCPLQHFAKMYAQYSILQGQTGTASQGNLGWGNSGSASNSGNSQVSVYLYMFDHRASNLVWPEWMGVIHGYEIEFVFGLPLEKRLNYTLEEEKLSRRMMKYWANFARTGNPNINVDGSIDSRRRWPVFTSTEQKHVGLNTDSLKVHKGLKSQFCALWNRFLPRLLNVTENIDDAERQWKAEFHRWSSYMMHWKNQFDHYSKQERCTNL

SMILES: CCNCc1ccc2nc(-c3ccc(Cl)cc3)c3c(c2c1)N(Cc1ccccc1)CCC3 [Compound 1]
- IC50 [1]: 7.08 ± 0.11 µM
- selectivity ratio at 6 days (in vitro [2]; [14]): 2.1
- IC50 [3]: 0.15 ± 0.01 µM
- IC50 [4]: 0.94 µM
- IC50 [5, 15]: 3.33 ± 0.18 µM
- IC90 ([5]; Trypanosoma brucei): 4.39 ± 0.04 µM

SMILES: NCc1ccc(-c2nc3ccc(Cl)cc3c3c2CCCO3)cc1 [Compound 39, 4-{9-Chloro-3,4-dihydro-2H-pyrano[3,2-c]quinolin-5-yl}benzylamine]
- IC50 ([6]; Leishmania infantum): 6.1 ± 0.2 µM
- IC50 [1]: 7 ± 0.19 µM
- selectivity ratio at 6 days (in vitro [2]; [16]): 1.1
- selectivity ratio at 6 days (in vitro [2]; [14]): 4.8
- selectivity ratio at 6 days (in vitro [2]; [17]): 0.2
- IC50 [7, 18]: ~30 µM
- IC50 ([7]; read-out: T. cruzi IC50, epimastigote form): 29.2 ± 3.7 µM
- IC50 [5, 15]: 1.5 µM
- IC90 ([5]; Trypanosoma brucei): 1.77 ± 0.02 µM
- IC50 [5, 19]: 1.46 ± 0.02 µM
- Pe [8]: 15.5 ± 1.8 10^−6 cm s^−1
- Pe (prediction) of BBB permeation [8]: CNS+ (compounds of high BBB permeation (CNS+): Pe (10^−6 cm s^−1) > 5.25)
- inhibition at 30 µM [9]: 45%
- IC50 [9]: > 30 µM

SMILES: Clc1ccc2nc(-c3cccs3)c(CCCN3CCCC3)cc2c1 [Compound 49, N-{3-[6-Chloro-2-(2-thienyl)quinolin-3-yl]propyl}pyrrolidine]
- IC50 ([6]; Leishmania infantum): ~15 µM
- IC50 [6]: 13.1 ± 5.8 µM
- IC50 [1]: 9.44 ± 0.14 µM
- selectivity ratio at 6 days (in vitro [2]; [16]): 0.7
- selectivity ratio at 6 days (in vitro [2]; [14]): 2.7
- selectivity ratio at 6 days (in vitro [2]; [17]): 0.3
- IC50 [7, 18]: 35.2 ± 12.6 µM
- IC50 [5, 15]: ~5 µM
- IC90 ([5]; Trypanosoma brucei): 4.93 ± 0.17 µM
- IC50 [5, 19]: 3.56 ± 0.17 µM
- Pe [8]: 12.9 ± 0.1 10^−6 cm s^−1
- Pe (prediction) of BBB permeation [8]: CNS+ (compounds of high BBB permeation (CNS+): Pe (10^−6 cm s^−1) > 5.25)
- inhibition at 30 µM [9]: 54%
- IC50 [9]: ~30 µM

SMILES: CCn1cc(C(=O)O)c(=O)c2cc(F)c(N3CCNCC3)cc21 [Norfloxacin]
- Papp (in vitro [10]): 0.9 ± 0.02 ×10⁻⁶ cm/s

SMILES: CN1C(C(=O)Nc2ccccn2)=C(O)c2ccccc2S1(=O)=O [Piroxicam]
- Pe, literature value [11]: 2.5 10–6 cm s–1

SMILES: CN(C)CCCN1c2ccccc2Sc2ccccc21 [Promazine]
- Pe, literature value [11]: 8.8 10–6 cm s–1

SMILES: O.O.O.O=C([O-])C(O)C(O)C(=O)[O-].O=C([O-])C(O)C(O)C(=O)[O-].[K+].[K+].[Sb].[Sb] (stereo not drawn) [Sb (III), Potassium antimony (III) tartrate hydrate, reference compound]
- IC50 [6]: 24.3 ± 1.7 µM
- SILi: selectivity index as the ratio of cytotoxic to anti-L. infantum IC50 values [12]: 0.1 ^g

SMILES: CC1CS(=O)(=O)CCN1/N=C/c1ccc([N+](=O)[O-])o1 (stereo not drawn) [nifurtimox, reference compound]
- IC50 [1]: 32 ± 1.1 µM
- IC50 [13]: 4.4 ± 0.7 µM
- selectivity ratio at 6 days (in vitro [2]; SITb: selectivity index as the ratio of cytotoxic to anti-T. brucei IC50 values): 7.3
